In US10233186B2, “Inhibitors of activin receptor-like kinase” (BLUEPRINT MEDICINES CORPORATION, priority 2016, dated 2019):

Columns and labels:
[1] = target: T1, ALK2 R206H (GST-tagged mutant ALK2) (Homo sapiens, UniProt Q04771, R206H); test: ALK binding assay (LANTHASCREEN TR-FRET competitive binding, displacement of Kinase Tracer 178); settings: ALK2 R206H, LANTHASCREEN TR-FRET competitive binding; read-out: Binding Assay (IC50)
T1 construct: purchased Carna Bioscience or ThermoFisher 09-148 or PV6232
T1 sequence (Q04771 21-509 R206H): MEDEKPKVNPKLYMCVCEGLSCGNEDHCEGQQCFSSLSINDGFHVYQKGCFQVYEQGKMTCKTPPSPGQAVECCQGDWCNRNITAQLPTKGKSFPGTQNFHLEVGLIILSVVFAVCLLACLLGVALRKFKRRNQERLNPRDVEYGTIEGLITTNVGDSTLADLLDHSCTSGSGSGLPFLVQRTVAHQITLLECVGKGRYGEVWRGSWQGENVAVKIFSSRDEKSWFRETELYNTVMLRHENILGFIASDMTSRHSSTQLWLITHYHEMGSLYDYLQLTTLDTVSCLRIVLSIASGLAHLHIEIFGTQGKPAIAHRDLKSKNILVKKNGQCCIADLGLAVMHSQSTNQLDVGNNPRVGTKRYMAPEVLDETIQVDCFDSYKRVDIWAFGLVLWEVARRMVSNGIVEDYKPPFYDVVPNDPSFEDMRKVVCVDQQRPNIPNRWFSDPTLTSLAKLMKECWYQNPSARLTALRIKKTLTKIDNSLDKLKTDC

human ALK2 R206H = target: T2, human ALK2 R206H (Homo sapiens, UniProt Q04771, R206H); test: Cell-based ALK2-R206H cell activity assay (Smad1-Ser463/Ser465 phosphorylation by AlphaLISA in HEK293-ALK2-R206H cells); settings: read-out: Cell Line (Cell Assay IC50)
T2 construct: expressed in transfected cells; host or cells: HEK293 (ATCC CRL1573), lentivirus transduction, blasticidin selection
T2 sequence (Q04771 21-509 R206H): T1 sequence (Q04771 21-509 R206H)
Outline: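 Stable HEK293 cells expressing C-terminally FLAG-tagged human ALK2 R206H (lentiviral, blasticidin-selected) were treated with compounds in 10-point, 3-fold dilutions from 10 μM or 1 μM top, in duplicate. Smad1 Ser463/Ser465 phosphorylation was read by AlphaLISA.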

Compound	IC50 [1]	IC50 (human ALK2 R206H)
CC(C)N1CCC[C@@H](c2ccc(-c3cc4c(N5CCN(C(=O)C6CC6)CC5)ccnn4c3)cc2)C1 [Compound 248]	< 10 nM	< 100 nM
CC(C)N1CCC(c2ccc(-c3cc4c(N5CCN(C(=O)C6CCC6)CC5)ccnn4c3)cc2)C1 (stereo not shown) [Compound 249]	< 10 nM	< 100 nM
CCN1CCC(c2ccc(-c3cc4c(N5CCN(C(=O)C6CCC6)CC5)ccnn4c3)cc2)CC1 [Compound 250]	< 10 nM	< 100 nM
CCN1CCC(c2ccc(-c3cc4c(N5CCN(C(=O)[C@H]6CC6(C)C)CC5)ccnn4c3)cc2)C1 (stereo partly shown) [Compound 251]	< 10 nM	< 100 nM
CCN1CCC(c2ccc(-c3cc4c(N5CCN(C(=O)C6CC6)[C@H](C)C5)ccnn4c3)cc2)CC1 [Compound 252]	< 10 nM	100 to 500 nM
CC(C)N1CC[C@H](c2ccc(-c3cc4c(N5CCN(C(=O)C6CC6)[C@H](C)C5)ccnn4c3)cc2)C1 [Compound 253]	< 10 nM	100 to 500 nM
CC(C)N1CC[C@@H](c2ccc(-c3cc4c(N5CCN(C(=O)C6CC6)[C@H](C)C5)ccnn4c3)cc2)C1 [Compound 254]	< 10 nM	< 100 nM
Cc1cc([C@@H]2CCN(C(C)C)C2)ccc1-c1cc2c(N3CCN(C(=O)C4CC4)CC3)ccnn2c1 [Compound 255]	< 10 nM	100 to 500 nM
Cc1cc([C@H]2CCN(C(C)C)C2)ccc1-c1cc2c(N3CCN(C(=O)C4CC4)CC3)ccnn2c1 [Compound 256]	< 10 nM	100 to 500 nM
CC(C)N1CCCCC1c1ccc(-c2cc3c(N4CCN(C(=O)C5CC5)CC4)ccnn3c2)cc1 (stereo not shown) [Compound 257]	< 10 nM	< 100 nM
N#C[C@H]1C[C@@H]1C(=O)N1CCN(c2ccnn3cc(-c4ccc(C5(F)CCCNC5)cc4)cc23)CC1 (stereo partly shown) [Compound 258]	< 10 nM	< 100 nM
CCN1CCN(c2ccc(-c3cc4c(N5CCN(C(=O)C6CC6)CC5)ccnn4c3)cc2)C(=O)C1 [Compound 259]	10 to 50 nM	> 500 nM

Other lines, results leading:

IC50 [1]	IC50 (human ALK2 R206H)	Compound
< 10 nM	100 to 500 nM	O=C(C1CC1)N1CCN(c2ccnn3cc(-c4ccc(N5CCNC6(COC6)C5)cc4)cc23)CC1 [Compound 260, (4-(6-(4-(2-oxa-5,8-diazaspiro[3.5]nonan-8-yl)phenyl)pyrrolo[1,2-b]pyridazin-4-yl)piperazin-1-yl)(cyclopropyl)methanone]
< 10 nM	< 100 nM	CC(C)N1CCN(c2ccc(-c3cc4c(N5CCN(C(=O)C6CC6)CC5)ccnn4c3)cc2)CC1 [Compound 261]
< 10 nM	100 to 500 nM	CCN1CCN(c2ccc(-c3cc4c(N5CCN(C(=O)C6CCC6)CC5)ccnn4c3)cc2)CC1 [Compound 262]
< 10 nM	100 to 500 nM	CCN1CCN(c2ccc(-c3cc4c(N5CCN(C(=O)C6CC6)C[C@@H]5C)ccnn4c3)cc2)CC1 [Compound 263]
< 10 nM	100 to 500 nM	CCN1CCN(c2ccc(-c3cc4c(N5CCN(C(=O)C6CC6)CC5)ccnn4c3)cc2)C[C@H]1C [Compound 264]
< 10 nM	< 100 nM	CCN1CCN(c2ccc(-c3cc4c(N5CCN(C(=O)C6CC6)CC5)ccnn4c3)cc2)C[C@@H]1C [Compound 265]
< 10 nM	< 100 nM	CC(C)N1CCC(c2ccc(-c3cc4c(N5CCN(C(=O)C6CC6)CC5)ccnn4c3)nc2)CC1 [Compound 266]
< 10 nM	< 100 nM	CC(C)N1CCC(c2ccc(-c3cc4c(N5CCN(C(=O)C6CC6)CC5)ccnn4c3)cn2)CC1 [Compound 267]
10 to 50 nM	100 to 500 nM	CCN1CCC(Oc2ccc(-c3cc4c(N5CCN(C(=O)C6CC6)CC5)ccnn4c3)cc2)CC1 [Compound 268]
< 10 nM	< 100 nM	CCN1CCCC(Oc2ccc(-c3cc4c(N5CCN(C(=O)C6CC6)CC5)ccnn4c3)cc2)C1 (stereo not shown) [Compound 269]
< 10 nM	< 100 nM	CCN1CCC(COc2ccc(-c3cc4c(N5CCN(C(=O)C6CC6)CC5)ccnn4c3)cc2)C1 (stereo not shown) [Compound 270]
